In article PMC11992225, “Antibacterial compounds against non-growing and intracellular bacteria” (npj Antimicrobials and Resistance, 2025):
Converted amounts (≈) assume the structure as drawn. Where two headings read alike, the source gives them in different places.

Tests used:
[1] = test system: E. coli CFT073 (UPEC); test: MIC, standard microdilution assay, growing UPEC; assay type: cell-based, Escherichia coli
Method in brief: (§1)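 Each strain was exposed to serially diluted compound in broth, in triplicate. The media were TSB for Shigella; CA-MHB at pH 7.4 (HEPES 40 mM) for S. aureus, P. aeruginosa and UPEC; and, for UPEC only, low-pH LPM (pH 5.5, 30 mM MES).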

[2] = test system: S. flexneri 5a M90T; test: MIC in tryptic soy broth, S. flexneri; assay type: cell-based, Shigella flexneri; settings: for MIC: Shigella flexneri, 5AM90T, read-out: MIC (μM) TSB; for MIC (μM) TSB: S. flexneri, extracellular bacteria in TSB
Method in brief: as §1

[3] = test system: P. aeruginosa DSM1117; test: MIC, standard microdilution assay, growing P. aeruginosa; assay type: cell-based, Pseudomonas aeruginosa
Method in brief: as §1

[4] = test system: intracellular S. flexneri 5a M90T in TC7 cells; test: microbe, parasite or virus in culture; assay type: cell-based, Shigella flexneri
Description: Nonproliferating bacterial pathogens frequently inhabit intracellular environments, but establishing relevant infection models for high-throughput testing is challenging. Therefore, we firstly tested ability of the hit compounds to cross the eukaryotic cytoplasmic membrane barrier and inhibit growth of S. flexneri within the cytoplasm of the TC7 human colon adenocarcinoma cell line[59]. To this end, we developed a new, fluorescence-based method that enables real-time monitoring of growth of intracellular Shigella. We used S. flexneri 5a M90T strain producing the AfaE adhesin that enhances bacterial adhesion to epithelial cells and allows synchronization of invasion. The strain was further modified to constitutively express super-folder GFP (sfGFP), which enables monitoring bacterial growth by fluorescence measurement. The epithelial cells were grown to confluence and infected with bacteria at an MOI (multiplicity of infection) of 50. […] Following bacterial adhesion and invasion, the cells were incubated with varying concentrations of the hit compounds and intracellular bacterial growth was tracked by measuring green fluorescence.
The cells were split using trypsin, seeded in 96-well plates for infection, and grown to confluence, corresponding to approximately 40,000 cells per well.
A single colony of S. flexneri was inoculated into TSB supplemented with 50 μg/ml spectinomycin and incubated overnight at 37°C with agitation. The overnight culture was diluted 1:200 in fresh TSB, and the bacteria were grown at 37 °C until the OD600 reached 0.3–0.4, corresponding to approximately 2 × 10^7 CFU/ml. Bacteria were pelleted by centrifugation, washed twice with sterile PBS, and resuspended in infection solution (serum-free DMEM supplemented with 20 mM HEPES, pH 7.4). Just prior to infection, the medium was withdrawn, and the cells were washed twice with sterile PBS. The bacterial inoculum (MOI 50, 2 × 10^7 CFU/ml) was added to all wells except the no-infection control. The plates were incubated at room temperature for 15 min to allow bacterial adhesion, followed by a 1 h incubation at 37 °C with 5% CO2 to facilitate bacterial invasion.
Twofold serial dilutions of the drugs were prepared in infection solution containing 50 μg/ml gentamicin in a 96-well plate. After the invasion period, the bacterial inoculum was removed, and the serial dilutions of the drugs were added to the wells, except for the no-drug control. […] […] The experiments were performed in triplicates on separate days.
Statistical significance of the drug effects was assessed using a one-way ANOVA followed by Dunnett’s test, comparing each treatment to the drug-free control. Statistical significance of the differences in chemical characteristics between the hit compounds and the Prestwick library was assessed using a Mann–Whitney test. Statistical significance was set at P ≤ 0.05. A five-parameter logistic equation was used for asymmetric sigmoidal curve fitting and for EC50 and IC50 determination. The Venn diagram in Fig. 1F was prepared using BioVenn web application. Characteristics of the chemical and physical properties of Prestwick library compounds were obtained from Supplementary Table S1 from reference. Characteristics of the hit compounds not included in the Prestwick library were retrieved from the PubChem database.

[5] = TC7 cells infected with GFP-expressing S. flexneri, 14 h treatment
[6] = E. coli, LPM pH 5.5, read-out: MIC
[7] = E. coli, pH 7.4, CA-MHB, read-out: MIC (μM) CA-MHB
[8] = P. aeruginosa, CA-MHB pH 7.4, read-out: MIC (μM) CA-MHB

Molecule: CO[C@H]1/C=C/O[C@@]2(C)Oc3c(C)c(O)c4c(O)c(c(/C=N/N5CCN(C6CCCC6)CC5)c(O)c4c3C2=O)NC(=O)/C(C)=C\C=C\[C@H](C)[C@H](O)[C@@H](C)[C@@H](O)[C@@H](C)[C@H](OC(C)=O)[C@@H]1C [Rifapentine]
- MIC ([1]; Escherichia coli, E. coli, LPM pH 5.5, read-out: MIC): 0.25 µM (≈ 0.219 µg/mL)
- MIC ([1]; Escherichia coli, E. coli, pH 7.4, 1:4 diluted CA-MHB, read-out: MIC (μM) 1:4 CA-MHB): 5 µM (≈ 4.39 µg/mL)
- MIC ([1]; Escherichia coli, E. coli, pH 7.4, CA-MHB, read-out: MIC (μM) CA-MHB): 8 µM (≈ 7.02 µg/mL)
- MIC [2]: 16 µM (≈ 14 µg/mL)
- MIC ([3]; Pseudomonas aeruginosa, DSM1117, P. aeruginosa, CA-MHB pH 7.4, read-out: MIC (μM) CA-MHB): 80 µM (≈ 70.2 µg/mL)
- IC50 ([4]; Shigella flexneri, TC7, 14 h): 3.09 µM
- Fluorescence intensity (RFU), Mean, 0.0625 x MIC ([4]; TC7 cells infected with GFP-expressing S. flexneri, 14 h treatment, 0.0625 x MIC): 10012.8 RFU
- Fluorescence intensity (RFU), Mean, 0.125 x MIC ([4]; TC7 cells infected with GFP-expressing S. flexneri, 14 h treatment, 0.125 x MIC): 10655.7 RFU
- Fluorescence intensity (RFU), Mean, 0.25 x MIC [4, 5]: 3668.46 RFU
- Fluorescence intensity (RFU), Mean, 0.5 x MIC [4, 5]: 1616.31 RFU
- Fluorescence intensity (RFU), Mean, 2 x MIC [4, 5]: 1321.39 RFU
- Fluorescence intensity (RFU), Mean, 4 x MIC [4, 5]: 1243.06 RFU
- Fluorescence intensity (RFU), Mean, 8 x MIC [4, 5]: 1167.19 RFU
- Fluorescence intensity (RFU), Mean, 16 x MIC [4, 5]: 915.083 RFU
- Fluorescence intensity (RFU), Mean, MIC [4, 5]: 1458.03 RFU

Molecule: Bleomycin
- MIC [1, 6]: 0.5 µM
- MIC [1, 7]: 0.5 µM
- MIC (μM) TSB [2]: 0.25 µM
- MIC [3, 8]: >100 µM
- inhibition of intracellular Shigella ([4]; TC7 cells): inactive

Molecule: Cn1c(COP(=O)(NCCBr)NCCBr)cnc1[N+](=O)[O-] [Evofosfamide]
- MIC (μM) CA-MHB +PAβN ([1]; E. coli, pH 7.4, CA-MHB with 10 μg/ml efflux pump inhibitor PaβN): >160 µM
- MIC ([1]; Escherichia coli, pH 5.5): 160 µM (≈ 71.8 µg/mL)
- MIC ([1]; Escherichia coli, pH 7.4, read-out: MIC (μM) 1:4 CA-MHB): > 160 µM
- MIC ([1]; Escherichia coli, pH 7.4, read-out: MIC (μM) CA-MHB): > 160 µM
- MIC [2]: 32 µM (≈ 14.4 µg/mL)
- MIC ([3]; Pseudomonas aeruginosa, DSM1117, pH 7.4, read-out: MIC (μM) CA-MHB): > 160 µM
- MIC:IC50 ratio ([4]; S. flexneri MIC in TSB versus intracellular IC50): below 0.5
- IC50 ([4]; Shigella flexneri, TC7, 14 h): 102 µM
- Fluorescence intensity (RFU), Mean, 0.25 x MIC [4, 5]: 9046.58 RFU
- Fluorescence intensity (RFU), Mean, 0.5 x MIC [4, 5]: 8823.33 RFU
- Fluorescence intensity (RFU), Mean, 2 x MIC [4, 5]: 7151.78 RFU
- Fluorescence intensity (RFU), Mean, 4 x MIC [4, 5]: 5305.28 RFU
- Fluorescence intensity (RFU), Mean, 8 x MIC [4, 5]: 3462.11 RFU
- Fluorescence intensity (RFU), Mean, MIC [4, 5]: 8378.86 RFU

Molecule: N#Cc1c(N2C[C@@H]3NCCO[C@H]3C2)c(F)cc2c(=O)c(C(=O)O)cn(C3CC3)c12 [Finafloxacin]
- MIC [1, 6]: 0.007812 µM (≈ 0.00311 µg/mL)
- MIC [1, 7]: 0.25 µM (≈ 0.0996 µg/mL)
- MIC (μM) TSB [2]: 0.125 µM (≈ 0.0498 µg/mL)
- MIC [3, 8]: 20 µM (≈ 7.97 µg/mL)
- Fluorescence intensity (RFU), Mean, 2 x MIC [4, 5]: 5014.06 RFU
- Fluorescence intensity (RFU), Mean, 4 x MIC [4, 5]: 3886.5 RFU
- Fluorescence intensity (RFU), Mean, 8 x MIC [4, 5]: 3157.03 RFU
- Fluorescence intensity (RFU), Mean, 16 x MIC [4, 5]: 2833.69 RFU
- Fluorescence intensity (RFU), Mean, 32 x MIC ([4]; TC7 cells infected with GFP-expressing S. flexneri, 14 h treatment, 32 x MIC): 2227.19 RFU
- Fluorescence intensity (RFU), Mean, MIC [4, 5]: 6107.08 RFU
- IC50 ([4]; intracellular S. flexneri in TC7 cells, GFP fluorescence after 14 h treatment, read-out: IC50): 0.202 µM
